B1: 5F11: fully human anti-CD30 monoclonal antibody; VH SEQ ID NO: 10, VL SEQ ID NO: 12; VH 4-34 and VK L15 (antibody, chains of the INN, looked up, V domains shown)
VH: QVQLQQWGAGLLKPSETLSLTCAVYGGSFSAYYWSWIRQPPGKGLEWIGDINHGGGTNYNPSLKSRVTISVDTSKNQFSLKLNSVTAADTAVYYCASLTAYWGQGSLVTVSS
VL: DIQMTQSPTSLSASVGDRVTITCRASQGISSWLTWYQQKPEKAPKSLIYAASSLQSGVPSRFSGSGSGTDFTLTISSLQPEDFATYYCQQYDSYPITFGQGTRLEIK
notes: fully human anti-CD30 monoclonal antibody; VH 4-34 and VK L15

What was measured:
[1] = guidance for hydrocortisone equivalents; actual potency may vary slightly; cited from earlier work
[2] = system: ALCL and various HD-derived cell lines; conditions: in vitro and in vivo; Borchmann et al., Blood 2003; cited from earlier work
[3] = system: Hodgkin's Disease (HD), CD30 positive lymphoma; test: Combination therapy of anti-CD30 antibody and glucocorticosteroid in patients with Hodgkin's Disease; assay type: in vivo, human
Procedure: The patient, diagnosed with HD, received 5 mg/kg anti-CD30 antibody 5F11 by i.v. infusion once per day per week for 3 weeks. The week after completing antibody therapy (i.e., fourth week from start of therapy), the patient received 40 mg oral dexamethasone once per day for 2 days; one month later the patient received another 40 mg oral dexamethasone once per day for 4 days; two weeks later the patient received a third regimen of 40 mg oral dexamethasone once per day for 4 days.
Patient 2, diagnosed with HD, received 15 mg/kg anti-CD30 antibody 5F11 by i.v. infusion once per day per week for 3 weeks. At the start of week 3 of antibody therapy, the patient received one dose of 50 mg oral dexamethasone. After completion of antibody therapy (i.e., at the beginning of week four following the start of therapy), the patient received one dose of 100 mg oral prednisolone.
Patient 4, diagnosed with HD, received 1 mg/kg anti-CD30 antibody […] by i.v. infusion once per day per week for 3 weeks. On the second day of week 1 after beginning therapy, the patient received 40 mg oral dexamethasone once per day for 4 days, followed by no steroid therapy for 10 days. Thus, a dexamethasone cycle was completed over a 14 day period. For this patient, 8 cycles of dexamethasone therapy were completed over a period of 4 months.

[4] = system: T cell lymphoma, CD30 positive lymphoma; test: Combination therapy of anti-CD30 antibody and glucocorticosteroid in a patient with T cell lymphoma; assay type: in vivo, human; conditions: Patient 3, T cell lymphoma; 40 mg oral dexamethasone daily for 4 days, then 50 mg oral prednisolone daily for 20 days; 15 mg/kg 5F11 i.v. once per week for 3 weeks from second week
Procedure: Patient 3, diagnosed with T cell lymphoma, received 40 mg oral dexamethasone once per day for 4 days. On day 5, dexamethasone treatment ceased and 50 mg oral prednisolone was administered once per day for 20 days. At the beginning of the second week of steroid therapy, antibody therapy was initiated by administering 15 mg/kg anti-CD30 antibody 5F11 by i.v. infusion once per day per week for 3 weeks.

Molecule | Relative potency in mg to hydrocortisone [1] | also measured
C[C@]12C=CC(=O)C=C1CC[C@@H]1[C@@H]2[C@@H](O)C[C@@]2(C)[C@H]1CC[C@]2(O)C(=O)CO [Prednisolone] | 4 | 
C[C@]12C=CC(=O)C=C1CC[C@H]1[C@@H]3C[C@@H](O)[C@](O)(C(=O)CO)[C@@]3(C)C[C@H](O)[C@@]12F [Triamcinolone] | 5 | 
C[C@]12CCC(=O)C=C1CC[C@@H]1[C@@H]2C(=O)C[C@@]2(C)[C@H]1CC[C@]2(O)C(=O)CO [Cortisone] | 0.8 | 
C[C@]12CCC(=O)C=C1CC[C@@H]1[C@@H]2[C@@H](O)C[C@@]2(C)[C@H]1CC[C@]2(O)C(=O)CO [Hydrocortisone] | 1 | 
C[C@]12CCC(=O)C=C1CC[C@@H]1[C@@H]2[C@@H](O)C[C@@]2(C)[C@H]1CC[C@]2(O)C(=O)CO [Cortisol] | 1.25 | 
B1 |  | efficacy against ALCL and various HD-derived cell lines [2]: shown efficacy; clinical response ([3]; Patient 1, HD, 5 mg/kg 5F11 i.v. once per week for 3 weeks, then 40 mg oral dexamethasone once per day for 2 days, 4 days and 4 days (three regimens)): partial response; clinical response ([3]; Patient 2, HD, 15 mg/kg 5F11 i.v. once per week for 3 weeks, one dose 50 mg oral dexamethasone at week 3, one dose 100 mg oral prednisolone at week 4): partial response, which improved to complete a response; clinical response ([3]; Patient 4, HD, 1 mg/kg antibody i.v. once per week for 3 weeks, 8 cycles of 40 mg oral dexamethasone daily for 4 days per 14 days over 4 months): partial response; clinical response [4]: complete response
